Laboratory results taken from paper PMC10768847 (Journal of medicinal chemistry, 2023).
Read-outs that look alike come from different tables or passages of the source. Where a SMILES comes first, the peptide text is derived from it. [ ]: non-standard residue; d: D form. The star is where a group is joined. Orn(α-tetramethylguanidino) = CN(C)C(=N[C@@H](CCCN)C(=O)*)N(C)C; Arg(Me) = CNC(=N)NCCC[C@H](N)C(=O)O; dLeu(ol) = CC(C)C[C@@H](N)CO; NHIsopentyl = CC(C)CCN*

Columns and labels:
E. coli BL21 RF2(R262C) = test: Minimum inhibitory concentration against release factor mutant strain; format: cell-based, Escherichia coli; conditions: Table 5; release factor mutant resistant to Api-137
E. coli BL21 = format: cell-based, Escherichia coli; conditions: for MIC: microbroth dilution, 96-well plates, E. coli BL21 OD600 = 0.002 in 0.3 Tryptic Soy Broth, overnight at 37 °C, visible cell density, run in duplicate; for Fold change: MIC compared to that of Api-137

Compound | Fold change (E. coli BL21; Table 3) | MIC (E. coli BL21; Table 3) | further results
CC[C@H](C)[C@H](NC(=O)[C@H](Cc1ccc(O)cc1)NC(=O)[C@@H](NC(=O)[C@@H]1CCCN1C(=O)[C@H](CCCNC(=N)N)NC(=O)[C@H](CC(N)=O)NC(=O)[C@H](CC(N)=O)NC(=O)[C@H](CCCN)N=C(N(C)C)N(C)C)C(C)C)C(=O)N1CCC[C@H]1C(=O)N[C@@H](CCCNC(=N)N)C(=O)N1CCC[C@H]1C(=O)N[C@@H](CCCNC(=N)N)C(=O)N1CCC[C@H]1C(=O)N1CCC[C@H]1C(=O)N[C@@H](Cc1c[nH]cn1)C(=O)N1CCC[C@H]1C(=O)N[C@@H](CCCNC(=N)NC)C(=O)N[C@@H](CC(C)C)C(=O)O [Compound 3] ({Orn(α-tetramethylguanidino)}-NNRPVYIPRPRPPHP[Arg(Me)]L-OH) | – | – | minimum inhibitory concentration, BL21 RF2(R262C) (E. coli BL21 RF2(R262C)): >25
CC[C@H](C)[C@H](NC(=O)[C@H](Cc1ccc(O)cc1)NC(=O)[C@@H](NC(=O)[C@@H]1CCCN1C(=O)[C@H](CCCNC(=N)N)NC(=O)[C@H](CC(N)=O)NC(=O)[C@H](CC(N)=O)NC(=O)[C@H](CCCN)N=C(N(C)C)N(C)C)C(C)C)C(=O)N1CCC[C@H]1C(=O)N[C@@H](CCCNC(=N)N)C(=O)N1CCC[C@H]1C(=O)N[C@@H](CCCNC(=N)N)C(=O)N1CCC[C@H]1C(=O)N1CCC[C@H]1C(=O)N[C@@H](Cc1c[nH]cn1)C(=O)N1CCC[C@H]1C(=O)N[C@@H](CCCNC(=N)N)C(=O)NCCC(C)C [Compound 4] ({Orn(α-tetramethylguanidino)}-NNRPVYIPRPRPPHPR-NHIsopentyl) | – | – | MIC (E. coli BL21; Table 1): > 40 µM
CC[C@H](C)[C@H](NC(=O)[C@H](Cc1ccc(O)cc1)NC(=O)[C@@H](NC(=O)[C@@H]1CCCN1C(=O)[C@H](CCCNC(=N)N)NC(=O)[C@H](CC(N)=O)NC(=O)[C@H](CC(N)=O)NC(=O)[C@H](CCCN)N=C(N(C)C)N(C)C)C(C)C)C(=O)N1CCC[C@H]1C(=O)N[C@@H](CCCNC(=N)N)C(=O)N1CCC[C@H]1C(=O)N[C@@H](CCCNC(=N)N)C(=O)N1CCC[C@H]1C(=O)N1CCC[C@H]1C(=O)N[C@@H](Cc1c[nH]cn1)C(=O)N1CCC[C@H]1C(=O)N[C@@H](CCCNC(=N)N)C(=O)N[C@@H](CO)CC(C)C [Compound 6] ({Orn(α-tetramethylguanidino)}-NNRPVYIPRPRPPHPR[dLeu(ol)]) | – | – | Fold change (E. coli BL21; Table 1): 62–128
CC[C@H](C)[C@H](NC(=O)[C@H](Cc1ccc(O)cc1)NC(=O)[C@@H](NC(=O)[C@@H]1CCCN1C(=O)[C@H](CCCNC(=N)N)NC(=O)[C@H](CC(N)=O)NC(=O)[C@H](CC(N)=O)NC(=O)[C@H](CCCN)N=C(N(C)C)N(C)C)C(C)C)C(=O)N1CCC[C@H]1C(=O)N[C@@H](CCCNC(=N)N)C(=O)N1CCC[C@H]1C(=O)N[C@@H](CCCNC(=N)N)C(=O)N1CCC[C@H]1C(=O)N1CCC[C@H]1C(=O)N[C@@H](Cc1c[nH]c2ccccc12)C(=O)N1CCC[C@H]1C(=O)N[C@@H](CCCNC(=N)N)C(=O)N[C@@H](CC(C)C)C(=O)O [Compound 14] ({Orn(α-tetramethylguanidino)}-NNRPVYIPRPRPPWPRL-OH) | – | – | Fold change (E. coli BL21; Table 2): 8–16; MIC (E. coli BL21; Table 2): 1.2 to 2.5 µM
gu-ONNRPVYIPRPRPPHPRL-OH [Compound 15] | 4 | 0.62 µM | –
gu-ONNRPVYIPRPRPPHPRL-OH [Compound 18] | 4 | 0.62 µM | –
gu-ONNRPVYIPRPRPPHPRL-OH [Compound 21] | 2–4 | – | –
gu-ONNRPVYIPRPRPPHPRL-OH [Compound 22] | 2–4 | – | –
gu-ONNRPVYIPRPRPPHPRL-OH [Compound 23] | 2 | 0.16 to 0.3 µM | –
gu-ONNRPVYIPRPRPPHPRL-OH [Compound 25] | – | 0.08 to 0.16 µM | –
gu-ONNRPVYIPRPRPPHPRL-OH [Compound 26] | 1 | 0.08 to 0.16 µM | –
